Results taken from ChEMBL document CHEMBL4402510, “Caprazamycins: Promising lead structures acting on a novel antibacterial target MraY” (Eur J Med Chem, 2019).
≈ marks a conversion by molar mass, not a printed value.

Columns and labels:
[1] = tested on: Mycolicibacterium smegmatis; assay: Antibacterial activity against Mycobacterium smegmatis; format: functional
Mycolicibacterium vaccae = assay: Antibacterial activity against Mycobacterium vaccae; format: functional
Mycobacterium avium = assay: Antibacterial activity against Mycobacterium avium; format: functional
[2] = tested on: Mycobacterium intracellulare; assay: Antibacterial activity against Mycobacterium intracellulare; format: functional
[3] = tested on: Mycobacterium tuberculosis; assay: Antibacterial activity against Mycobacterium tuberculosis; format: functional
Haemophilus influenzae [4] = assay: Antibacterial activity against Haemophilus influenzae ATCC 10211; format: functional
Pseudomonas aeruginosa [5] = assay: Antibacterial activity against Pseudomonas aeruginosa PAO1 deltamexB; format: functional
Enterococcus faecalis [6] = assay: Antibacterial activity against Enterococcus faecalis ATCC 29212; format: functional
Staphylococcus aureus [7] = assay: Antibacterial activity against methicillin resistant Staphylococcus aureus SR3637; format: functional
Staphylococcus aureus [8] = assay: Antibacterial activity against methicillin susceptible Staphylococcus aureus after 20 hrs by NCCLS-based two-fold broth dilution method; format: functional; details: read-out: MIC
Staphylococcus aureus [9] = assay: Antibacterial activity against methicillin resistant Staphylococcus aureus after 20 hrs by NCCLS-based two-fold broth dilution method; format: functional; details: read-out: MIC
Enterococcus faecalis [10] = assay: Antibacterial activity against t Enterococcus faecalis VRE after 20 hrs by NCCLS-based two-fold broth dilution method; format: functional; details: read-out: MIC
[11] = target: T1, Phospho-N-acetylmuramoyl-pentapeptide-transferase (Staphylococcus aureus, UniProt P0C1R8); assay: Inhibition of MraY in Staphylococcus aureus
T1 sequence (P0C1R8 whole entry): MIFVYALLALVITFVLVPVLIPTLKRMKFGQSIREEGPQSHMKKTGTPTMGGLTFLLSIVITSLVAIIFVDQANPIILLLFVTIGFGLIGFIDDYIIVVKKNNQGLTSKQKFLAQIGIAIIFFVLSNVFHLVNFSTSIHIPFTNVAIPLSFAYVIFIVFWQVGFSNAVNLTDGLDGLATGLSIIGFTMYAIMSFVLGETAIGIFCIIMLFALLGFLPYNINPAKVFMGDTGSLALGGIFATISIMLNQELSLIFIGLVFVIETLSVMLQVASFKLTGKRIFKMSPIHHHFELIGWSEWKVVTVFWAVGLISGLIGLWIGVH

Haemophilus influenzae [12] = assay: Antibacterial activity against Haemophilus influenzae after 20 hrs by NCCLS-based two-fold broth dilution method; format: functional
Pseudomonas aeruginosa [13] = assay: Antibacterial activity against Pseudomonas aeruginosa YY165; format: functional
Enterococcus faecium [14] = assay: Antibacterial activity against t Enterococcus faecium after 20 hrs by NCCLS-based two-fold broth dilution method; format: functional
Enterococcus faecium [15] = assay: Antibacterial activity against Enterococcus faecium SR7917 (VRE); format: functional
Enterococcus faecalis [16] = assay: Antibacterial activity against t Enterococcus faecalis after 20 hrs by NCCLS-based two-fold broth dilution method; format: functional; details: read-out: MIC
Escherichia coli [17] = assay: Antibacterial activity against Escherichia coli ATCC 25922; format: functional
Enterococcus faecalis [18] = assay: Antibacterial activity against Enterococcus faecalis SR7914 (VRE); format: functional
Enterococcus faecium [19] = assay: Antibacterial activity against t Enterococcus faecium VRE after 20 hrs by NCCLS-based two-fold broth dilution method; format: functional; details: read-out: MIC
Staphylococcus aureus [20] = assay: Antibacterial activity against methicillin susceptible Staphylococcus aureus ATCC 29213; format: functional
Streptococcus pneumoniae = assay: Antibacterial activity against Streptococcus pneumoniae; format: functional
Acinetobacter baumannii = assay: Antibacterial activity against Acinetobacter baumannii ATCC 19606; format: functional; details: ATCC 19606 = CIP 70.34 = JCM 6841
Pseudomonas aeruginosa [21] = assay: Antibacterial activity against Pseudomonas aeruginosa after 20 hrs by NCCLS-based two-fold broth dilution method; format: functional
Enterococcus faecium [22] = assay: Antibacterial activity against Enterococcus faecium ATCC 19434; format: functional
Escherichia coli [23] = assay: Antibacterial activity against Escherichia coli after 20 hrs by NCCLS-based two-fold broth dilution method; format: functional
[24] = target: Phospho-N-acetylmuramoyl-pentapeptide-transferase (Escherichia coli, UniProt E2QF15); assay: Inhibition of MraY in Escherichia coli
Citrobacter freundii = assay: Antibacterial activity against Citrobacter freundii ATCC 8090; format: functional
Pseudomonas aeruginosa [25] = assay: Antibacterial activity against Pseudomonas aeruginosa ATCC 27853; format: functional
[26] = target: T2, Phospho-N-acetylmuramoyl-pentapeptide-transferase (Bacillus subtilis (strain 168), UniProt Q03521); assay: Inhibition of MraY in Bacillus subtilis using UDP-MurNAc-[14C]pentapeptide as substrate by radioactivity scanning assay
T2 sequence (Q03521 whole entry): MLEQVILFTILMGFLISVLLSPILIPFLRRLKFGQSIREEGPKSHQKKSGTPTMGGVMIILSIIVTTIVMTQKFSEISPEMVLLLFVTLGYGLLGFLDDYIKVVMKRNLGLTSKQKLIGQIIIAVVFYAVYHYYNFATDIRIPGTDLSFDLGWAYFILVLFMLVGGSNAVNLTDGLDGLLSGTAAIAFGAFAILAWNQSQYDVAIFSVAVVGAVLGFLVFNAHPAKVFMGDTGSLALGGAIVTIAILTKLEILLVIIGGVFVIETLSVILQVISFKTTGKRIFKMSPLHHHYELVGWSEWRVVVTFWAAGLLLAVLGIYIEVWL

Staphylococcus aureus [27] = assay: Antibacterial activity against Staphylococcus aureus ATCC 25923; format: functional
Escherichia coli [28] = assay: Antibacterial activity against Escherichia coli ATCC 8730; format: functional
Staphylococcus aureus [29] = assay: Antibacterial activity against methicillin resistant Staphylococcus aureus ATCC 43300; format: functional
[30] = target: T2, Phospho-N-acetylmuramoyl-pentapeptide-transferase; assay: Inhibition of MraY in Bacillus subtilis
Staphylococcus aureus [31] = assay: Antibacterial activity against methicillin resistant Staphylococcus aureus; format: functional, organism-based
[32] = target: T3, Phospho-N-acetylmuramoyl-pentapeptide-transferase (Aquifex aeolicus (strain VF5), UniProt O66465); assay: Inhibition of MraY in Aquifex aeolicus
T3 sequence (O66465 whole entry): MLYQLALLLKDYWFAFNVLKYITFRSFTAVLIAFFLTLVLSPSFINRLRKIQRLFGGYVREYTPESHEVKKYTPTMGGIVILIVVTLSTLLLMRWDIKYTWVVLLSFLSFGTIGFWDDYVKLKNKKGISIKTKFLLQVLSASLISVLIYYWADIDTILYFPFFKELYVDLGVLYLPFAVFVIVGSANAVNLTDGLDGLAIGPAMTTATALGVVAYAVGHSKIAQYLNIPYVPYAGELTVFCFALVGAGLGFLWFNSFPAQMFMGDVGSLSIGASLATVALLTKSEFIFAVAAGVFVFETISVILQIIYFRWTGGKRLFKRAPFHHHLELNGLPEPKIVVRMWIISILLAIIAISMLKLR

Sequence of Phospho-N-acetylmuramoyl-pentapeptide-transferase (Escherichia coli, UniProt E2QF15) (E2QF15 whole entry): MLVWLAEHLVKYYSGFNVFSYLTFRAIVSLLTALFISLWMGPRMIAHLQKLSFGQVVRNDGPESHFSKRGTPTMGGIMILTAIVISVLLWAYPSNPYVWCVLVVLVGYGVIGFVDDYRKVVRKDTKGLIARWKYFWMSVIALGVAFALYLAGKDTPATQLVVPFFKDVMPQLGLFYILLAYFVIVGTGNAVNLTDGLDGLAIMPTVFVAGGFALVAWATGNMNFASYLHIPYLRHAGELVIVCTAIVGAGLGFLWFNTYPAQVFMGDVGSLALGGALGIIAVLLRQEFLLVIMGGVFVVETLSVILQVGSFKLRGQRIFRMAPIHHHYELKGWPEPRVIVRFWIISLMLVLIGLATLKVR

SMILES | MIC (Haemophilus influenzae [4]) [µg/mL] | MIC (Enterococcus faecalis [6]) [µg/mL] | MIC (Staphylococcus aureus [7]) [µg/mL] | MIC (Staphylococcus aureus [8]) [µg/mL] | MIC (Staphylococcus aureus [9]) [µg/mL] | MIC (Enterococcus faecalis [10]) [µg/mL] | MIC (Haemophilus influenzae [12]) [µg/mL] | MIC (Pseudomonas aeruginosa [13]) [µg/mL] | MIC (Enterococcus faecium [14]) [µg/mL] | MIC (Enterococcus faecium [15]) [µg/mL] | MIC (Enterococcus faecalis [16]) [µg/mL] | MIC (Enterococcus faecalis [18]) [µg/mL] | MIC (Enterococcus faecium [19]) [µg/mL] | MIC (Staphylococcus aureus [20]) [µg/mL] | MIC (Pseudomonas aeruginosa [21]) [µg/mL] | MIC (Enterococcus faecium [22]) [µg/mL] | also measured
CCCCCCCCCCCCC[C@@H](CC(=O)O[C@H]1CN(C)[C@@H]([C@H](O[C@@H]2O[C@H](CN)[C@@H](O)[C@H]2O)[C@H]2O[C@@H](n3ccc(=O)[nH]c3=O)[C@H](O)[C@@H]2O)C(=O)N(C)[C@@H]1C(=O)O)OC(=O)C[C@H](C)CC(=O)O[C@@H]1O[C@@H](C)[C@H](OC)[C@@H](OC)[C@H]1OC | – | – | – | – | – | – | – | – | – | – | – | – | – | – | – | – | MIC [1]: 0.78 to 1.56 µg/mL (≈ 0.68 to 1.36 µM); MIC (Mycolicibacterium vaccae): 0.2 µg/mL (≈ 0.174 µM); MIC (Mycobacterium avium): < 0.025 µg/mL; MIC [2]: 0.78 µg/mL (≈ 0.68 µM); MIC [3]: 1.56 µg/mL (≈ 1.36 µM)
CCCCCCCCCCCCCCCC(=O)N[C@@H]1CCN[C@@H]([C@H](O[C@@H]2O[C@H](CN)[C@@H](O)[C@H]2O)[C@H]2O[C@@H](n3ccc(=O)[nH]c3=O)[C@H](O)[C@@H]2O)C1 | 32 (≈ 45 µM) | 4 (≈ 5.62 µM) | 16 (≈ 22.5 µM) | 8 (≈ 11.2 µM) | 16 (≈ 22.5 µM) | 2 (≈ 2.81 µM) | 32 (≈ 45 µM) | 32 (≈ 45 µM) | 2 (≈ 2.81 µM) | 4 (≈ 5.62 µM) | 4 (≈ 5.62 µM) | 2 (≈ 2.81 µM) | 8 (≈ 11.2 µM) | 8 (≈ 11.2 µM) | 32 (≈ 45 µM) | 8 (≈ 11.2 µM) | MIC (Pseudomonas aeruginosa [5]): > 64 µg/mL; IC50 [11]: 24 µM; MIC (Escherichia coli [17]): > 64 µg/mL; MIC (Streptococcus pneumoniae): 64 µg/mL (≈ 89.9 µM); MIC (Acinetobacter baumannii): > 64 µg/mL; MIC (Escherichia coli [23]): 4 µg/mL (≈ 5.62 µM)
CCCCCCCCCCCCCC(=O)N[C@@H]1CCN[C@@H]([C@H](O[C@@H]2O[C@H](CN)[C@@H](O)[C@H]2O)[C@H]2O[C@@H](n3ccc(=O)[nH]c3=O)[C@H](O)[C@@H]2O)C1 | 32 (≈ 46.8 µM) | 2 (≈ 2.92 µM) | 32 (≈ 46.8 µM) | 16 (≈ 23.4 µM) | 32 (≈ 46.8 µM) | 2 (≈ 2.92 µM) | 32 (≈ 46.8 µM) | 32 (≈ 46.8 µM) | 16 (≈ 23.4 µM) | 8 (≈ 11.7 µM) | 2 (≈ 2.92 µM) | 2 (≈ 2.92 µM) | 8 (≈ 11.7 µM) | 16 (≈ 23.4 µM) | 32 (≈ 46.8 µM) | 16 (≈ 23.4 µM) | –
NC[C@H]1O[C@@H](OC[C@H]2O[C@@H](n3ccc(=O)[nH]c3=O)[C@H](O)[C@@H]2O)[C@H](O)[C@@H]1O | – | – | – | – | – | – | – | – | – | – | – | – | – | – | – | – | IC50 [24]: 50 µM
NC[C@H]1O[C@@H](O[C@@H](c2cn(CCCCCCCCCCOc3ccc(C(=O)c4ccccc4)cc3)nn2)[C@H]2O[C@@H](n3ccc(=O)[nH]c3=O)[C@H](O)[C@@H]2O)[C@H](O)[C@@H]1O | – | – | – | – | – | – | – | – | – | – | – | – | – | – | – | > 128 | MIC (Citrobacter freundii): > 128 µg/mL; MIC (Pseudomonas aeruginosa [25]): > 128 µg/mL; IC50 [26]: 100 µM; MIC (Staphylococcus aureus [27]): 8 µg/mL (≈ 10.3 µM); MIC (Escherichia coli [28]): > 128 µg/mL; MIC (Staphylococcus aureus [29]): 8 µg/mL (≈ 10.3 µM); IC50 [30]: 125 µM; IC50 (Staphylococcus aureus [31]): 100 µM
NC[C@H]1O[C@@H](O[C@H]([C@H]2O[C@@H](n3ccc(=O)[nH]c3=O)[C@H](O)[C@@H]2O)n2cc(CCCCCCCCCCOc3ccc(C(=O)c4ccccc4)cc3)nn2)[C@H](O)[C@@H]1O | – | – | – | – | – | – | – | – | – | – | – | – | – | – | – | – | IC50 [32]: 25 µM; MIC (Staphylococcus aureus [31]): 8 µg/mL (≈ 10.3 µM)
